Experiments:
human recombinant MAGL = human recombinant MAGL (Homo sapiens (Human), UniProt Q99685); test: In vitro inhibition of MAGL activity (inhibitor screening kit, 4-nitrophenylacetate); assay type: biochemical; conditions: human recombinant MAGL
Protocol: The inhibitory effect of the compounds on activity of human recombinant MAGL was also studied using a commercial inhibitor screening kit (Cayman Chemicals). In brief, MAGL hydrolyzes 4-nitrophenylacetate resulting in a yellow product, 4-nitrophenol with an absorbance at 405-412 nm, while the inhibitor will inhibit the MAGL activity and thus reduce the yellow signal. The absorbance of the yellow product can be analyzed using the plate reader. Inhibition is calculated as a percentage of the treated sample over the non-treated MAGL control based on the signal values.

human recombinant FAAH = human recombinant FAAH (Homo sapiens (Human), UniProt O00519); test: In vitro inhibition of FAAH activity (fluorescent inhibitor screening kit, AMC arachidonoyl amide); assay type: biochemical; conditions: human recombinant FAAH; read-out: Inhibition on FAAH activity (IC50)
Source text: The inhibitory effect of compounds of Formula (I-IV) on the activity of human recombinant FAAH was studied using a commercial inhibitor screening kit (Cayman Chemicals, Godlewski et al., 2010 [19]). In brief, FAAH hydrolyzes AMC arachidonoyl amide resulting in the release of the fluorescent product, while the inhibitor will inhibit the FAAH activity and thus reduce the fluorescent signal. The resulting fluorophore can be analyzed using an excitation wavelength of 340-360 nm and an emission wavelength of 450-465 nm by a plate reader (Synergy H1, Biotek). Inhibition is calculated as a percentage of the treated sample over the non-treated control based on the signal values, and where possible, a range of concentrations of compounds was tested to find the IC50 values (i.e. the concentration of compound that inhibited 50% FAAH activity).

Sequence of human recombinant MAGL (Q99685 whole entry): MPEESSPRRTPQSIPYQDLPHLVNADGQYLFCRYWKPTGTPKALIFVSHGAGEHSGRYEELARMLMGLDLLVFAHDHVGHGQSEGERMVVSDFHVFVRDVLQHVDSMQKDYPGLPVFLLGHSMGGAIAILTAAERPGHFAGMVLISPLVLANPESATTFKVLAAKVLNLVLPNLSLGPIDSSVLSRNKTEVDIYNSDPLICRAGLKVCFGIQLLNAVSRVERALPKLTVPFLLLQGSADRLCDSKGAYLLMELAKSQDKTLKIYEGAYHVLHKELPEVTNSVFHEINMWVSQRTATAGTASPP
Sequence of human recombinant FAAH (O00519 whole entry): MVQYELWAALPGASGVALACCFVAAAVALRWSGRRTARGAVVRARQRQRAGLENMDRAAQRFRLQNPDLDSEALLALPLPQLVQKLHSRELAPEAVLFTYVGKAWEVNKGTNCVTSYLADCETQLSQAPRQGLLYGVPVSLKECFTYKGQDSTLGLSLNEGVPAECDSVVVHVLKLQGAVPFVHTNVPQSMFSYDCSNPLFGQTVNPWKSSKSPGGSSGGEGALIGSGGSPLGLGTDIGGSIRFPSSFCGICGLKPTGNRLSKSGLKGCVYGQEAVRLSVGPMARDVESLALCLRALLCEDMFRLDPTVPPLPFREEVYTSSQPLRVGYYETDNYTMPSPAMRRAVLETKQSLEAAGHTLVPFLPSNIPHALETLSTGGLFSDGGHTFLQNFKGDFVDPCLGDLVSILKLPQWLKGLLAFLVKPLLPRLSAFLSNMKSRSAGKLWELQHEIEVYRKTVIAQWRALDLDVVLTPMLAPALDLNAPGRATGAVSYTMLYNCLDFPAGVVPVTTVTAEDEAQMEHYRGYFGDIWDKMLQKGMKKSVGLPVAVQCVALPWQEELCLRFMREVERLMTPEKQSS

Row | Molecule | IC50 (human recombinant MAGL) [µM] | IC50 (human recombinant FAAH) [µM]
1 | 3-(5-(1,3,4-oxadiazol-2-yl pyridin-3-yl)phenyl pentylcarbamate [Example 127] | > 50 | 0.01 to 0.1
2 | 3-(5-(1,3,4-oxadiazol-2-yl)134 pyridine-3-yl)phenyl heptylcarbamate [Example 129] | > 10 | 0.001 to 0.01
3 | CCCCCCCNC(=O)Oc1cccc(-c2cncc(C(=O)OCC)c2)c1 [Example 2, ethyl 5-(3-((heptylcarbamoyl)oxy)phenyl)nicotinate] | 1 to 10 | 0.01 to 0.1
4 | CCCCCCCCCCCCCCNC(=O)Oc1cccc(-c2cncc(C(=O)OCC)c2)c1 [Example 4, ethyl 5-(3-((tetradecylcarbamoyl)oxy)phenyl)nicotinate] | 1 to 10 | 0.001 to 0.01
5 | CCOC(=O)c1cncc(-c2cccc(OC(=O)NC3CCCC3)c2)c1 [Example 5, ethyl 5-(3-((cyclopentylcarbamoyl)oxy)phenyl)nicotinate] | > 10 | 0.01 to 0.1
6 | CCOC(=O)c1cncc(-c2cccc(OC(=O)NC3CCCCC3)c2)c1 [Example 6, ethyl 5-(3-((cyclohexylcarbamoyl)oxy)phenyl)nicotinate] | > 0.1 | > 0.1
7 | CCOC(=O)c1cncc(-c2cccc(OC(=O)Nc3ccc(F)cc3)c2)c1 [Example 7, ethyl 5-(3-(((4-fluorophenyl)carbamoyl)oxy)phenyl)nicotinate] | > 10 | > 1
8 | COC(=O)c1cncc(-c2cccc(OC(=O)NC3CCCC3)c2)c1 [Example 11, methyl 5-(3-((cyclopentylcarbamoyl)oxy)phenyl)nicotinate] | > 10 | 0.01 to 0.1
9 | COC(=O)c1cncc(-c2cccc(OC(=O)NC3CCCCC3)c2)c1 [Example 12, methyl 5-(3-((cyclohexylcarbamoyl)oxy)phenyl)nicotinate] | > 10 | 0.01 to 0.1
10 | COC(=O)c1cncc(-c2cccc(OC(=O)NC34CC5CC(CC(C5)C3)C4)c2)c1 [Example 13, methyl 5-(3-((((1s,3s)-adamantan-1-yl)carbamoyl)oxy)phenyl)nicotinate] | > 10 | > 1
11 | CCCCCNC(=O)Oc1cccc(-c2cncc(C=O)c2)c1 [Example 14, 3-(5-formylpyridin-3-yl)phenyl pentylcarbamate] | 10 to 50 | 0.01 to 0.1
12 | CCCCCCCNC(=O)Oc1cccc(-c2cncc(C=O)c2)c1 [Example 15, 3-(5-formylpyridin-3-yl)phenyl heptylcarbamate] | 10 to 50 | 0.01 to 0.1
13 | CCCCCCCCNC(=O)Oc1cccc(-c2cncc(C=O)c2)c1 [Example 16, 3-(5-formylpyridin-3-yl)phenyl octylcarbamate] | 1 to 10 | 0.01 to 0.1
14 | O=Cc1cncc(-c2cccc(OC(=O)NCC3CCCCC3)c2)c1 [Example 17, 3-(5-formylpyridin-3-yl)phenyl (cyclohexylmethyl)carbamate] | > 10 | 0.01 to 0.1
15 | O=Cc1cncc(-c2cccc(OC(=O)NC3CCCC3)c2)c1 [Example 18, 3-(5-formylpyridin-3-yl)phenyl cyclopentylcarbamate] | > 10 | 0.01 to 0.1
16 | O=Cc1cncc(-c2cccc(OC(=O)NC3CCCCCC3)c2)c1 [Example 20, 3-(5-formylpyridin-3-yl)phenyl cyclohepylcarbamate] | > 10 | 0.1 to 1
17 | O=Cc1cncc(-c2cccc(OC(=O)NC34CC5CC(CC(C5)C3)C4)c2)c1 [Example 21, 3-(5-formylpyridin-3-yl)phenyl ((1s,3s)-adamantan-1-yl)carbamate] | > 10 | > 1
18 | CCCCCCCNC(=O)Oc1cccc(-c2cncc(C(=O)NO)c2)c1 [Example 22, 3-(5-(hydroxycarbamoyl)pyridin-3-yl)phenyl heptylcarbamate] | > 1 | 0.01 to 1
19 | CCCCCCCCNC(=O)Oc1cccc(-c2cncc(C(=O)NO)c2)c1 [Example 23, 3-(5-(hydroxycarbamoyl)pyridin-3-yl)phenyl octylcarbamate] | > 10 | > 1
20 | CCCCCCCCNC(=O)Oc1cccc(-c2cncc(C(=O)NN)c2)c1 [Example 25, 3-(5-(hydrazinecarbonyl)pyridin-3-yl)phenyl octylcarbamate] | > 10 | > 1
21 | N#Cc1cncc(-c2cccc(OC(=O)NC3CCCCC3)c2)c1 [Example 28, 3-(5-cyanopyridin-3-yl)phenyl cyclohexylcarbamate] | > 10 | 0.1 to 1

Row | Molecule | IC50 (human recombinant MAGL) [µM] | IC50 (human recombinant FAAH) [µM]
22 | N#Cc1cncc(-c2cccc(OC(=O)NC3CCCCCC3)c2)c1 [Example 29, 3-(5-cyanopyridin-3-yl)phenyl cycloheptylcarbamate] | > 10 | ~0.1
23 | O=C(NCC1CCCCC1)Oc1cccc(-c2cncc(C(F)(F)F)c2)c1 [Example 31, 3-(5-(trifluoromethyl)pyridin-3-yl)phenyl (cyclohexylmethyl)carbamate] | > 1 | 0.01 to 0.1
24 | O=C(NC1CCCC1)Oc1cccc(-c2cncc(C(F)(F)F)c2)c1 [Example 32, 3-(5-(trifluoromethyl)pyridin-3-yl)phenyl cyclopentylcarbamate] | > 10 | 0.01 to 0.1
25 | O=C(NC1CCCCC1)Oc1cccc(-c2cncc(C(F)(F)F)c2)c1 [Example 33, 3-(5-(trifluoromethyl)pyridin-3-yl)phenyl cyclohexylcarbamate] | > 10 | 0.1 to 1
26 | O=C(NC1CCCCCC1)Oc1cccc(-c2cncc(C(F)(F)F)c2)c1 [Example 34, 3-(5-(trifluoromethyl)pyridin-3-yl)phenyl cycloheptylcarbamate] | > 10 | 0.1 to 1
27 | CCCCCCCCNC(=O)Oc1cccc(-c2cncc(-c3ccc[nH]3)c2)c1 [Example 35, 3-(5-(1H-pyrrol-2-yl)pyridin-3-yl)phenyl octylcarbamate] | > 10 | 0.01 to 0.1
28 | O=C(NCC1CCCCC1)Oc1cccc(-c2cncc(-c3ccc[nH]3)c2)c1 [Example 36, 3-(5-(1H-pyrrol-2-yl)pyridin-3-yl)phenyl (cyclohexylmethyl)carbamate] | ~10 | 0.1 to 1
29 | O=C(NCc1ccccc1)Oc1cccc(-c2cncc(-c3ccc[nH]3)c2)c1 [Example 37, 3-(5-(1H-pyrrol-2-yl)pyridin-3-yl)phenyl benzylcarbamate] | > 10 | ~1
30 | O=C(NC1CCCC1)Oc1cccc(-c2cncc(-c3ccc[nH]3)c2)c1 [Example 38, 3-(5-(1H-pyrrol-2-yl)pyridin-3-yl)phenyl cyclopentylcarbamate] | > 10 | 0.1 to 1
31 | O=C(NC1CCCCC1)Oc1cccc(-c2cncc(-c3ccc[nH]3)c2)c1 [Example 39, 3-(5-(1H-pyrrol-2-yl)pyridin-3-yl)phenyl cyclohexylcarbamate] | > 10 | 0.1 to 1
32 | O=C(NC1CCCCCC1)Oc1cccc(-c2cncc(-c3ccc[nH]3)c2)c1 [Example 40, 3-(5-(1H-pyrrol-2-yl)pyridin-3-yl)phenyl cycloheptylcarbamate] | ~10 | 0.01 to 0.1
33 | COc1ccc(OC(=O)NCC2CCCCC2)cc1-c1cncc(-c2ccc[nH]2)c1 [Example 42, 3-(5-(1H-pyrrol-2-yl)pyridin-3-yl)-4-methoxyphenyl (cyclohexylmethyl)carbamate] | ~10 | 0.1 to 1
34 | COc1ccc(OC(=O)NCc2ccccc2)cc1-c1cncc(-c2ccc[nH]2)c1 [Example 43, 3-(5-(1H-pyrrol-2-yl)pyridin-3-yl)-4-methoxyphenyl benzylcarbamate] | > 10 | > 1
35 | COc1ccc(OC(=O)NC2CCCC2)cc1-c1cncc(-c2ccc[nH]2)c1 [Example 44, 3-(5-(1H-pyrrol-2-yl)pyridin-3-yl)-4-methoxyphenyl cyclopentylcarbamate] | > 10 | > 1
36 | COc1ccc(OC(=O)NC2CCCCC2)cc1-c1cncc(-c2ccc[nH]2)c1 [Example 45, 3-(5-(1H-pyrrol-2-yl)pyridin-3-yl)-4-methoxyphenyl cyclohexylcarbamate] | > 10 | > 1
37 | COc1ccc(OC(=O)NC2CCCCCC2)cc1-c1cncc(-c2ccc[nH]2)c1 [Example 46, 3-(5-(1H-pyrrol-2-yl)pyridin-3-yl)-4-methoxyphenyl cycloheptylcarbamate] | > 10 | 0.1 to 1
38 | O=C(NCC1CCCCC1)Oc1cccc(-c2cncc(-c3ccco3)c2)c1 [Example 48, 3-(5-(furan-2-yl)pyridin-3-yl)phenyl (cyclohexylmethyl)carbamate] | ~10 | 0.01 to 0.1
39 | O=C(NCc1ccccc1)Oc1cccc(-c2cncc(-c3ccco3)c2)c1 [Example 49, 3-(5-(furan-2-yl)pyridin-3-yl)phenyl benzylcarbamate] | > 10 | 0.1 to 1
40 | O=C(NC1CCCC1)Oc1cccc(-c2cncc(-c3ccco3)c2)c1 [Example 50, 3-(5-(furan-2-yl)pyridin-3-yl)phenyl cyclopentylcarbamate] | ~10 | 0.01 to 0.1
41 | O=C(NC1CCCCC1)Oc1cccc(-c2cc(-c3nnco3)ccn2)c1 [Example 260, 3-(4-(1,3,4-oxadiazol-2-yl)pyridin-2-yl)phenyl cyclohexylcarbamate] | > 10 | 
